Experimental findings from patent US20030040510A1, “Selective estrogen receptor modulators in combination with estrogens” (Endorecherche, Inc., priority 2000, published 2003) are described below.

A word on the IC50: it is the concentration needed to halve the response being measured.

For assay [1], the system named is OVX rats having established osteopenia. Kind of assay: Treatment of OVX rats having established osteopenia, 26 weeks (Example 5B): BMD, total body fat. In kind it is in vivo, Sprague-Dawley rats. Conditions: treatment started 10 weeks after OVX, 26 weeks daily. The procedure: (§1) Height to nine month-old female Sprague-Dawley rats (Crl:CD(SD)Br) (Charles River Laboratory, St-Constant, Canada) were used in this experiment. The animals were acclimatized to the environmental conditions (temperature: 22±3° C.; humidity: 50±20%; 12-h light-12-h dark cycles, lights on at 07:15 h) for at least 1 week prior to the ovariectomy. Animals were bilaterally ovariectomized (OVX) under isoflurane anesthesia. Twenty animals were kept intact as control. The animals were housed individually and were allowed free access to tap water and a pelleted certified rodent feed (Lab Diet 5002, Ralston Purina, St-Louis, Mo.). Experiments were conducted in an animal facility approved by the Canadian Council on Animal Care (CCAC) and the Association for Assessment and Accreditation of Laboratory Animal Care (AAALAC) in accordance with the CCAC Guide for Care and Use of Experimental Animals.
Treatments were initiated 10 weeks after the ovariectomy and were performed once daily during 26 weeks. Animals not receiving a test article were treated with the appropriate vehicle alone during the same period.
Prior to the OVX, prior to the first day treatment (10 weeks after OVX) and after 26 weeks of treatment, individual rats under Isoflurane anesthesia had their whole body skeleton, lumbar spine and right femur scanned using dual energy x-ray absorptiometry (DEXA; QDR 4500A, Hologic, Waltham, Mass.) and a Regional High Resolution Scan software. The bone mineral density (BMD) of the lumbar spine (vertebrae L2 to L4), femur and the total body composition (fat percentage) were determined.

For assay [2], the system named is uterus and vagina of ovariectomized mice. Briefly: Uterine and vaginal weight in ovariectomized mice treated or not with estrone (9 days oral). In kind it is in vivo, BALB/c mice. To be noted: for Inhibition of estrone-stimulated uterine weight / Inhibition of estrone-stimulated vaginal weight: 9 days, OVX mice + E1. As for the experimental part:
(St-Constant, Quebec, Canada) and housed 5 per cage in a temperature (23±1° C.)—and light (12 h light/day, lights on at 7:15)—controlled environment. The mice were fed rodent chow and tap water ad libitum. […] Ten mice were kept intact as controls. […] Compounds were dissolved in ethanol (4% final concentration) and administered in 0.4% methylcellulose. Mice in the intact and OVX control groups received the vehicle alone (4% ETOH-0.4% methylcellulose) during the 9-day period. The animals were killed by exsanguination at the abdominal aorta on the 11th morning following ovariectomy.

For the next assay, the system named is human Ishikawa cells. Kind of assay: Alkaline phosphatase activity in human endometrial adenocarcinoma Ishikawa cells. The format is cell-based. Conditions: 5 days. As for the experimental part: The human Ishikawa cell line derived from a well differentiated endometrial adenocarcinoma was kindly provided by Dr. Erlio Gurpide, The Mount Sinai Medical Center, New York, N.Y. The Ishikawa cells were routinely maintained in Eagle's Minimum Essential Medium (MEM) containing 5% (vol/vol) FBS (Fetal Bovine Serum) and supplemented with 100 U/ml penicillin, 100 μg/ml streptomycin, 0.1 mM non-essential amino acids solution. Cells were plated in Falcon T75 flasks at a density of 1.5×10^6 cells at 37° C.
Twenty four hours before the start of the experiment, the medium of near confluent Ishikawa cells was replaced by fresh estrogen-free basal medium (EFBM) consisting of a 1:1 (v:v) mixture of phenol red-free Ham's F-12 and Dulbecco's Modified Eagle's Medium (DMEM) supplemented with 100 U/mL penicillin, 100 μg/mL streptomycin, 2 mM glutamine, and 5% FBS treated twice with dextran-coated charcoal to remove endogenous steroids. Cells were then harvested by 0.1% pancreatin (Sigma) and 0.25 mM HEPES, resuspended in EFBM and plated in Falcon 96, well flat-bottomed microtiter plates at a density of 2.2×10^4 cells/well in a volume of 100 μl and allowed to adhere to the surface of the plates for 24 h. Thereafter, medium was replaced with fresh EFBM containing the indicated concentrations of compounds in a final volume of 200 μl. Cells were incubated for five days, with a medium change after 48 h.
At the end of the incubation period, microtiter plates were inverted and growth medium was decanted. The plates were rinsed with 200 μl by well of PBS (0.15M NaCl, 10 mM sodium phosphate, pH 7.4). PBS was then removed from the plates while carefully leaving some residual PBS, and the wash procedure was repeated once. The buffered saline was then decanted, and the inverted plates were blotted gently on a paper towel. Following replacement of the covers, the plates were placed at −80° C. for 15 min followed by thawing at room temperature for 10 min. […] Plates were monitored at 405 nm in an enzyme-linked immunosorbent assay plate reader (BIO-RAD, model 2550 EIA Reader).

The test system of assay [3] is ovariectomized female rats. Briefly: Prevention of bone loss, body fat, serum cholesterol and ALP, 26-week treatment of OVX rats (Example 5A, experiment 2). In kind it is in vivo, Sprague-Dawley rats. Conditions: OVX rats, 26 weeks. The procedure: as §1, with “Ten” for “Height”, “twelve week-old” for “nine month-old”, “Canada) weighing approximately 220-270 g at start of treatment” for “Canada)”, “used.” for “used in this experiment.”, “before starting” for “prior to”, “experiments.” for “ovariectomy. Animals were bilaterally ovariectomized (OVX) under isoflurane anesthesia. Twenty animals were kept intact as control.”
On day 1 of the study, the animals of the appropriate groups were bilaterally OVX under isoflurane anesthesia. Tested compounds were administered as suspension in 0.4% methylcellulose by oral gavage. Treatments were initiated on day 2 of the study and were performed once daily during 26 weeks. In both experiments, animals not receiving a test article were treated with the appropriate vehicle alone during the same period.
After 3 months (experiment 1) or 26 weeks (experiment 2) of treatment, individual rats under Isoflurane anesthesia had their whole body skeleton and lumbar spine scanned using dual energy x-ray absorptiometry (DEXA; QDR 4500A, Hologic, Waltham, Mass.) and a Regional High Resolution Scan software. The bone mineral density (BMD) of the lumbar spine (vertebrae L2 to L4) and the total body composition (fat percentage) were determined.
After 3 months (experiment 1) or 26 weeks (experiment 2) of treatment, blood samples were collected at the jugular vein from overnight fasted animals (under Isoflurane anesthesia). Samples were processed for serum preparation and frozen at −80° C. until assay. Serum cholesterol levels and alkaline phospatase activity (ALP) were determined using the Boehringer Mannheim Diagnostic Hitachi 911 Analyzer (Boehringer Mannheim Diagnostic Laboratory Systems).

The mark [4] stands for this setting: alone, absence of estrone, both doses used.

Regarding `CC1=C(c2ccc(O)cc2)[C@H](c2ccc(OCCN3CCCCC3)cc2)Oc2cc(O)ccc21.Cl` [EM-652.HCl, (S)-(+)-7-hydroxy-3-(4′-hydroxyphenyl)-4-methyl-2-(4″-(2′″-piperidinoethoxy)phenyl)-2H-1-benzopyran hydrochloride], in assay [1], the “Femoral BMD” value is reported as “completely prevented the further decrease”, the “Lumbar spine BMD” value is recorded as “completely prevented the further decrease” and the Total body fat entry was “prevented the 17% increase”. In assay [2] (1 μg daily oral), the “Inhibition of estrone-stimulated uterine weight” value was 24% and the “Inhibition of estrone-stimulated vaginal weight” value is reported as 10%. Moreover, in assay [2] (3 μg daily oral), the “Inhibition of estrone-stimulated uterine weight” value came to 48% and the “Inhibition of estrone-stimulated vaginal weight” value is listed as 25%. In addition, in assay [2] (10 μg daily oral), the “Inhibition of estrone-stimulated uterine weight” value came to 72% and the “Inhibition of estrone-stimulated vaginal weight” value is 53%. Further, in assay [2] (setting [4]), the “Stimulatory effect on uterine weight” value was “no significant stimulatory effect” and the “Stimulatory effect on vaginal weight” value is listed as “no significant stimulatory effect”. The “Maximal inhibition of 1 nM E2-induced stimulation of alkaline phosphatase” value in the assay on human Ishikawa cells (1 nM E2) was 98.97 ± 0.174 (18). For the same molecule, the IC50 in the assay on human Ishikawa cells (Homo sapiens, 120 h, 1 nM E2, read-out: Inhibition of 1 nM E2-induced stimulation of alkaline phosphatase IC50) was 1.52 ± 0.22 nM. Further, the Emax in the assay on human Ishikawa cells (Homo sapiens, 120 h, read-out: Maximal stimulation of alkaline phosphatase, % of 1 nM E2 stimulation) was found to be 1.88 ± 0.26%. Moreover, in assay [3], the “Serum ALP” value came out at 78 ± 4 IU and the Serum cholesterol worked out at 0.98 ± 0.06 mmol/L.
